Patent EP4714948A1, “COMPOUND USED FOR EGFR PROTEIN DEGRADATION, AND USE THEREOF” (TYK Medicines, Inc., priority 2023, dated 2024)

Key:
PC-9 = test: Cell antiproliferative assay (CTG, 72 h); type: cell-based; conditions: Homo sapiens, PC-9 (EGFR exon 19 deletion)
Experimental: (§1) H1975 has EGFR T790M/L858R dual mutation, PC-9 has EGFR exon 19 deletion mutation, and HCC827 has exon 19 deletion mutation. CellCounting Lite 2.0, Trypsin EDTA, 37 °C CO2 incubator, cell counter, EnVision Serial No.1050454.
(§2) • (A) Trypsin EDTA was used to digest log-phase cells, medium was added to terminate the digestion reaction, and a cell suspension was prepared by blowing and mixing with a pipette. • (B) Cell concentration was determined using Vi-cell, and a suspension of 15,000-25,000 cells per milliliter was made depending on the purpose of the experiment and the characteristics of the cells. • (C) After the cell suspension was ready, it was gently mixed and each well was added with 100µL so that the cell density to be tested was 1,500- 2,500 per well.
(§3) • A) About 2 mg of compound was weighed, and the volume of DMSO required was calculated according to the formula: compound mass (mg)*compound purity (%)/compound molecular weight*1000. • (B) The inoculated cell culture plates were incubated in an incubator. About 24 hours later, compounds were added at gradient concentrations. • (C) 10mM of compound reservoir solution was diluted to […] with medium, and […] of the compound solution was added sequentially to the second column of the deep-well plate, and […] of medium containing 0.5% DMSO was added to the third to eleventh columns. • D) Gradient dilution: 125 µl of solution was pipetted from the second column and added to the third column, after mixing; another 125 µl of solution was pipetted from the third column and added to the fourth column, and the operation was repeated until the tenth column. • (E) 25 µl of compound was pipetted from the deep-well plate into a 96-well culture plate using a multichannel pipette, and each compound was run in triplicate on the 96-well plate. A 1:4 concentration gradient was established on the 96-well plate, with a final highest concentration of 10,000 nM.
(§4) • (A) 96-well plates were incubated in an incubator for 72 h. The effect of the compounds was observed under an inverted microscope. • (B) 25 µl of CTG solution was added to each well. The plate was incubated on a shaker for 10 minutes and the OD value of each well was read.
(§5) The survival rate ( % Cell Viability) was calculated using the following formula: %Cell Viability = 100% × (Lum_Sample−Lum_LC)/(Lum_HC−Lum_LC) [formula] • Lum_HC: Cell reading of 0.1% DMSO control group • Lum_Sample: Cell readings of compound addition group • Lum_LC: Reading of blank medium • IC50 values were obtained by curve fitting using GraphPad Prism 8 software.

H1975 = test: Cell antiproliferative assay (CTG, 72 h); type: cell-based; conditions: Homo sapiens, NCI-H1975, H1975 (EGFR T790M/L858R)
Experimental: as §1, §2, §3, §4, §5

HCC827 = test: Cell antiproliferative assay (CTG, 72 h); type: cell-based; conditions: Homo sapiens, HCC827 (exon 19 deletion)
Experimental: as §1, §2, §3, §4, §5

[1] = target: EGFR in BAF3-DTC (Baf3-19del-T780M-C797S) (Homo sapiens, UniProt P00533, C797S/DEL746-750/T790M); test: EGFR PROTAC HTRF experiment (total EGFR degradation); type: cell-based; conditions: BAF3-DTC cells, 16 hours incubation
Sequence of EGFR in BAF3-DTC (Baf3-19del-T780M-C797S) (P00533 with tags, fused parts or gaps DEL746-750/T790M/C797S): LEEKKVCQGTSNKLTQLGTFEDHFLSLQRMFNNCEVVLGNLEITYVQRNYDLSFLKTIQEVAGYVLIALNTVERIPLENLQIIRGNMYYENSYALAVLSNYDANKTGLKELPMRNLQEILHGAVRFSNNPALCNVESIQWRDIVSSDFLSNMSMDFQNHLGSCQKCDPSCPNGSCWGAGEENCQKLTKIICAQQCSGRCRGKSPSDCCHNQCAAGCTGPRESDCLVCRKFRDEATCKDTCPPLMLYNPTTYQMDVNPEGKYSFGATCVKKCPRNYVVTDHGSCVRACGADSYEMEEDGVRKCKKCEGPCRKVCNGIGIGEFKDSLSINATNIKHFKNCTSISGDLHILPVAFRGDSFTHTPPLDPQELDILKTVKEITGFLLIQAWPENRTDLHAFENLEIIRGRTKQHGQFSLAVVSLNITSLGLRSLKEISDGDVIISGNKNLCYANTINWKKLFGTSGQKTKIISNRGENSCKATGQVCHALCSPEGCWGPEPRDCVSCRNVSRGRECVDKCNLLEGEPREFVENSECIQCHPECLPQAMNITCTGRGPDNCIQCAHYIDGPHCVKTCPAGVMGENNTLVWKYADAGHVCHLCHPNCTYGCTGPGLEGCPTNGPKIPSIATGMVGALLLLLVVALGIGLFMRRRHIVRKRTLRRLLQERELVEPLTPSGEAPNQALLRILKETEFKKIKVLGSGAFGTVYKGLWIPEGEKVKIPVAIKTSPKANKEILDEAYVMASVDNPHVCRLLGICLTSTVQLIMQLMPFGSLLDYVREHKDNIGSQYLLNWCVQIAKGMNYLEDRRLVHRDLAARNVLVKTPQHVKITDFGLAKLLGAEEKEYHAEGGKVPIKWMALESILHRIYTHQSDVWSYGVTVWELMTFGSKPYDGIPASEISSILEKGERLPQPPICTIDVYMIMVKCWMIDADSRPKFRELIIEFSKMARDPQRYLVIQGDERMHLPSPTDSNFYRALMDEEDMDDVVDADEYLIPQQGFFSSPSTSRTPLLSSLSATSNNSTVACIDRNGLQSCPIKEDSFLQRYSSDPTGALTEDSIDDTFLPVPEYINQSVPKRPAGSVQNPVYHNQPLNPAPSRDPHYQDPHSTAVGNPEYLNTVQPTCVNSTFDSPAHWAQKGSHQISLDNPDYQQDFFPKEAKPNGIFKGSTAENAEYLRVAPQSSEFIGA

[2] = target: EGFR in BAF3-LTC (Baf3-L858R-T780M-C797S) (Homo sapiens, UniProt P00533, C797S/L858R/T790M); test: as above; type: cell-based; conditions: BAF3-LTC cells, 16 hours incubation
Sequence of EGFR in BAF3-LTC (Baf3-L858R-T780M-C797S) (P00533 25-1210 T790M/C797S/L858R): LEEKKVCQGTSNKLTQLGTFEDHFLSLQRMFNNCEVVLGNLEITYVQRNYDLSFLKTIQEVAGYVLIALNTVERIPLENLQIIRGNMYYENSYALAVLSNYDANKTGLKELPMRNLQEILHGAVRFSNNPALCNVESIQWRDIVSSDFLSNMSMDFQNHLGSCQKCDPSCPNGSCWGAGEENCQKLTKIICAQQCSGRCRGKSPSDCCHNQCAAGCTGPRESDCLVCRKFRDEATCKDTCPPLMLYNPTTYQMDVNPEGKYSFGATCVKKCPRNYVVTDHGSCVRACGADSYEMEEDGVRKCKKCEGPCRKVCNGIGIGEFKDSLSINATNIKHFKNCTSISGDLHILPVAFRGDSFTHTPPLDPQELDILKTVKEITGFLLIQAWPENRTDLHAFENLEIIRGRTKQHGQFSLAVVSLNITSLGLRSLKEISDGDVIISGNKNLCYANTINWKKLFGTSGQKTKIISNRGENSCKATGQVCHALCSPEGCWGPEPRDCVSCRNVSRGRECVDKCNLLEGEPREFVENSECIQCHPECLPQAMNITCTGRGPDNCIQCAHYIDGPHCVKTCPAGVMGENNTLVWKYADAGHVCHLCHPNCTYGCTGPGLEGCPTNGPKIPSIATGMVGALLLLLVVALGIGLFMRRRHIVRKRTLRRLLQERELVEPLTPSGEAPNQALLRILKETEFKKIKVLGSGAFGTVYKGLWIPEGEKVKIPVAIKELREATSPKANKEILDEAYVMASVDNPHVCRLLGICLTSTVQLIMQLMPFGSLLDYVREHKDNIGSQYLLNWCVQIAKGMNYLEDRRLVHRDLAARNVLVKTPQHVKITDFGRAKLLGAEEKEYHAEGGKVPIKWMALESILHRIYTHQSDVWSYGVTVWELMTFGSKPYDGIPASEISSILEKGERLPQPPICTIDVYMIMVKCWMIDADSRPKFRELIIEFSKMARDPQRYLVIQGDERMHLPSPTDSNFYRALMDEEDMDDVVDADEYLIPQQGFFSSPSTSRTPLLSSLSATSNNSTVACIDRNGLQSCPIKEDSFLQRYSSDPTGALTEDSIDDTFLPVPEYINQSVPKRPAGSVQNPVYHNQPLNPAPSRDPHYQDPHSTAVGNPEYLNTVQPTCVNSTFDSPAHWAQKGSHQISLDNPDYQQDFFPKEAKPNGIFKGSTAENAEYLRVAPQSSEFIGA

[3] = Pharmacokinetic test on male SD rats; type: in vivo; conditions: gavage (p.o.), 10 mg/kg, plasma; for AUC(0-inf) / AUC(0-t) / Cmax / MRT last / Tmax: rat, po
Experimental: Healthy adult SD rats, male, a total of 3, 6-8 weeks old; Weighing 200-300 grams.
EDTA-Na2 anticoagulant: 11.2 g of EDTA-Na2 was weighted and placed into a reagent bottle. 100 mL of physiological saline was added and the mixture was shaken until completely dissolved. After preparation, the solution was aliquoted into 1.5 mL centrifuge tubes, each containing approximately 20 uL, for use in whole blood sample collection.
Approximately 10 mg of the test sample was accurately weighed. DMSO accounting for 10% of the total volume was added to dissolve the sample. Subsequently, 0.5% MC solvent accounting for 90% of the total volume was slowly added while stirring. The mixture was sonicated and vortexed evenly, and a visually homogeneous preparation solution was obtained, with a concentration of 1 mg/mL. This solution should be freshly prepared immediately before use.
0.2 mL of the sample was pipetted into a 1.5 mL centrifuge tube and stored at -80°C for concentration analysis of the dosing solution.
Animals were kept in rat cages and fasted for no less than 10 hours on the day before the experiment, but were allowed to drink water. The animals were individually weighed and marked on their tails. Prior to dosing, blank blood samples were collected from each animal via the tail vein.
• Administration route: gavage (p.o.) • Dosage concentration: 1mg/ml • Dosage: 10 mg/kg • Dosage volume: 10 mL/kg
Operation process: The rat was grasped with a left hand protected by a bite-resistant glove and held in an upright position. The gavage needle was inserted through the mouth and advanced towards the pharynx. The needle was advanced gently, ensuring no significant resistance was felt. The drug was then injected into the stomach.
At 0.5 h, 1 h, 2 h, 4 h, 6 h, 8 h, 12 h, and 24 h post-dosing, 0.1-0.2 mL of whole blood was collected from each test animal into EDTA-Na2 anticoagulant tubes. The tubes were mixed by inverting 3-4 times. The samples were centrifuged at 2000 × g and 4 °C for 5 minutes. The upper plasma layer was to separated, promptly transferred to -80 °C for storage until analysis. The blood was collected via tail vein.
A quantitative detection method for the test compound was established using a Shimadzu liquid chromatography system and a Triple Quad™ 6500+ AB mass spectrometry (MS) system. This method was used to analyze the concentration of the parent drug in plasma. The variation of the analysis results was controlled using quality control (QC) samples, and the accuracy of the QC samples was required to be within the range of 80%-120%.
The main pharmacokinetic parameters were calculated using the non-compartmental model (NCA) with the WinNonlin Phoenix software. These parameters include: area under the concentration-time curve (AUC(0-t) and AUC(0-∞)), elimination half-life (T1/2), maximum plasma concentration (Cmax), and time to reach maximum plasma concentration (Tmax), etc.

IC50 (PC-9)	IC50 (H1975)	IC50 (HCC827)	DC50 [1]	Dmax [1]	DC50 [2]	Dmax [2]	HL_ [3]	AUC(0-inf) [3]	AUC(0-t) [3]	Cmax [3]	MRT last [3]	Tmax [3]	Compound
100 to 1000 nM	10 to 100 nM	100 to 1000 nM	100 to 1000 nM	50 to 70%	100 to 1000 nM	50 to 70%	2.61 h	24400 ng·h/mL	24000 ng·h/mL	2290 ng/mL	7.49 h	2.67 h	CCc1cc(Nc2ncc(Cl)c(Nc3ccccc3C(=O)NC)n2)c(OC)cc1N1CCN(C(=O)CC2(O)CCN(c3ccc(NC4CCC(=O)NC4=O)cc3F)CC2)CC1 (centres unmarked) [Compound T-037]
100 to 1000 nM	10 to 100 nM	100 to 1000 nM	10 to 100 nM	50 to 70%	100 to 1000 nM	70 to 100%	2.51 h	8210 ng·h/mL	7900 ng·h/mL	1010 ng/mL	5.65 h	4.67 h	CCc1cc(Nc2ncc(Cl)c(Nc3ccccc3C(=O)NC)n2)c(OC)cc1N1CCN(C(=O)CN2CCN(c3ccc(NC4CCC(=O)NC4=O)cc3F)CC2)CC1 (centres unmarked) [Compound T-029]
100 to 1000 nM	< 10 nM	10 to 100 nM	10 to 100 nM	70 to 100%	10 to 100 nM	70 to 100%	9.28 h	76300 ng·h/mL	61600 ng·h/mL	4060 ng/mL	10 h	6 h	CCc1cc(Nc2ncc(Cl)c(Nc3ccccc3C(=O)NC)n2)c(OC)cc1N1CCN(CCN2CCC(c3ccc(NC4CCC(=O)NC4=O)cc3)CC2)CC1 (centres unmarked) [Compound T-023]
10 to 100 nM	< 10 nM	10 to 100 nM	10 to 100 nM	70 to 100%	10 to 100 nM	70 to 100%							CCc1cc(Nc2ncc(Cl)c(Nc3ccccc3C(=O)NC)n2)c(OC)cc1N1CC2(CN(C(=O)CN3CCC(c4ccc(NC5CCC(=O)NC5=O)cc4)CC3)C2)C1 (centres unmarked) [Compound T-080]
100 to 1000 nM	< 10 nM	100 to 1000 nM	10 to 100 nM	70 to 100%	10 to 100 nM	70 to 100%	4.39 h	11300 ng·h/mL	11000 ng·h/mL	1020 ng/mL	7.78 h	4 h	CCc1cc(Nc2ncc(Cl)c(Nc3ccccc3C(=O)NC)n2)c(OC)cc1N1CCN(C(=O)CN2CCC(c3ccc(NC4CCC(=O)NC4=O)cc3F)CC2)CC1 (centres unmarked) [Compound T-067]
